How the values were obtained:
Format in all cases: in vivo
[1] = system: ragweed (common ragweed, Ambrosia elatior); test: Test B pre-/postemergence plant response
Outline: (§1)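 Greenhouse pots, loam/sand soil; compound formulated with surfactant in non-phytotoxic solvent. Preemergence soil spray and postemergence spray at 1–2 leaf stage run simultaneously. Visual injury, 0–100, about 10 days post-treatment.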

[2] = system: kochia (Kochia scoparia); test: Test B pre-/postemergence plant response
Outline: as §1

[3] = system: corn (Zea mays); test: Test B pre-/postemergence plant response
Outline: as §1

[4] = system: wheat (Triticum aestivum); test: Test B pre-/postemergence plant response
Outline: as §1

[5] = system: giant foxtail (Setaria faberii); test: Test B pre-/postemergence plant response
Outline: as §1

[6] = system: barnyardgrass (Echinochloa crus-galli); test: Test B pre-/postemergence plant response
Outline: as §1

[7] = system: pigweed (Amaranthus retroflexus); test: Test B pre-/postemergence plant response
Outline: as §1

[8] = system: Italian ryegrass (Lolium multiflorum); test: Test B pre-/postemergence plant response
Outline: as §1

[9] = system: barnyardgrass (Echinochloa crus-galli); test: Test C flooded paddy test plant response; conditions: Flood, 250 g ai/ha; scale of 0 to 100 where 0 is no effect and 100 is complete control; 13 to 15 days
Outline: (§2)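 Readout is a visual 0–100 score (100 = complete control) versus controls at 13–15 days. Plants at 2-leaf stage, flooded to 3 cm, treated through paddy water.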

[10] = system: rice (Oryza sativa); test: Test C flooded paddy test plant response; conditions: Flood, 250 g ai/ha; scale of 0 to 100 where 0 is no effect and 100 is complete control; 13 to 15 days
Outline: as §2

[11] = system: ducksalad (Heteranthera limosa); test: Test C flooded paddy test plant response; conditions: Flood, 250 g ai/ha; scale of 0 to 100 where 0 is no effect and 100 is complete control; 13 to 15 days
Outline: as §2

[12] = system: small-flower umbrella sedge (Cyperus difformis); test: Test C flooded paddy test plant response; conditions: Flood, 250 g ai/ha; scale of 0 to 100 where 0 is no effect and 100 is complete control; 13 to 15 days
Outline: as §2

[13] = system: galium (catchweed bedstraw, Galium aparine); test: Test B postemergence plant response
Outline: (§3)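 Injury was assessed visually about 10 days after treatment, scored from 0 (no effect) to 100 (complete control) by comparison with untreated controls. Test chemicals had been applied postemergence to potted plants at the one- to two-leaf stage, grown in loam soil and sand in a greenhouse.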

[14] = system: blackgrass (Alopecurus myosuroides); test: Test B postemergence plant response
Outline: as §3

[15] = 31 g ai/ha, Preemergence, 0 to 100 scale where 0 is no effect and 100 is complete control
[16] = 125 g ai/ha, postemergence, 0 to 100 scale, 0 no effect, 100 complete control
[17] = Postemergence, 31 g ai/ha, 0 to 100 scale (0 no effect, 100 complete control)
[18] = Preemergence, 125 g ai/ha, 0 to 100 scale (0 no effect, 100 complete control)
[19] = 500 g ai/ha, postemergence, 0 to 100 scale, 0 no effect, 100 complete control
[20] = Preemergence, 500 g ai/ha, 0 to 100 scale where 0 is no effect and 100 is complete control

Cc1csc(-c2ccccc2Oc2ncc(Cl)cn2)c1 [Compound 216]
Plant response rating, Ragweed [1, 15]: 0 | Plant response rating, Ragweed [1, 16]: 0 | Plant response rating, Ragweed [1, 17]: 0 | Ragweed plant response rating [1, 18]: 0 | Plant response rating, Kochia [2, 15]: 0 | Plant response rating, Kochia [2, 16]: 20 | Plant response rating, Kochia [2, 17]: 10 | Kochia plant response rating [2, 18]: 0 | Plant response rating, Corn [3, 16]: 10 | Plant response rating, Corn [3, 17]: 0 | Plant response rating, Wheat [4, 16]: 0 | Plant response rating, Wheat [4, 17]: 0 | Plant response rating, Foxtail, Giant [5, 15]: 0 | Plant response rating, Foxtail, Giant [5, 16]: 0 | Plant response rating, Foxtail, Giant [5, 17]: 0 | Foxtail, Giant plant response rating [5, 18]: 0 | Plant response rating, Barnyardgrass [6, 15]: 0 | Plant response rating, Barnyardgrass [6, 16]: 10 | Plant response rating, Barnyardgrass [6, 17]: 10 | Barnyardgrass plant response rating [6, 18]: 10 | Plant response rating, Pigweed [7, 15]: 0 | Plant response rating, Pigweed [7, 16]: 30 | Plant response rating, Pigweed [7, 17]: 10 | Pigweed plant response rating [7, 18]: 0 | Plant response rating, Ryegrass, Italian [8, 15]: 0 | Plant response rating, Ryegrass, Italian [8, 16]: 0 | Plant response rating, Ryegrass, Italian [8, 17]: 0 | Ryegrass, Italian plant response rating [8, 18]: 0 | Barnyardgrass plant response rating [9]: 0 | Rice plant response rating [10]: 0 | Ducksalad plant response rating [11]: 0 | Sedge, Umbrella plant response rating [12]: 0 | Plant response rating, Galium [13, 16]: 50 | Plant response rating, Galium [13, 17]: 20 | Plant response rating, Blackgrass [14, 16]: 10 | Plant response rating, Blackgrass [14, 17]: 0

Fc1cccc(Oc2ncc(Cl)cn2)c1-c1cn(CC(F)(F)F)cn1 [Compound 217]
Plant response rating, Ragweed [1, 16]: 10 | Plant response rating, Ragweed [1, 19]: 30 | Ragweed plant response rating [1, 18]: 0 | Plant response rating, Ragweed [1, 20]: 0 | Plant response rating, Kochia [2, 16]: 10 | Plant response rating, Kochia [2, 19]: 30 | Kochia plant response rating [2, 18]: 0 | Plant response rating, Kochia [2, 20]: 0 | Plant response rating, Corn [3, 16]: 0 | Plant response rating, Corn [3, 19]: 0 | Plant response rating, Wheat [4, 16]: 0 | Plant response rating, Wheat [4, 19]: 0 | Plant response rating, Foxtail, Giant [5, 16]: 0 | Plant response rating, Foxtail, Giant [5, 19]: 0 | Foxtail, Giant plant response rating [5, 18]: 0 | Plant response rating, Foxtail, Giant [5, 20]: 30 | Plant response rating, Barnyardgrass [6, 16]: 0 | Plant response rating, Barnyardgrass [6, 19]: 0 | Barnyardgrass plant response rating [6, 18]: 0 | Plant response rating, Barnyardgrass [6, 20]: 10 | Plant response rating, Pigweed [7, 16]: 10 | Plant response rating, Pigweed [7, 19]: 60 | Pigweed plant response rating [7, 18]: 10 | Plant response rating, Pigweed [7, 20]: 70 | Plant response rating, Ryegrass, Italian [8, 16]: 0 | Plant response rating, Ryegrass, Italian [8, 19]: 0 | Ryegrass, Italian plant response rating [8, 18]: 0 | Plant response rating, Ryegrass, Italian [8, 20]: 10 | Barnyardgrass plant response rating [9]: 20 | Rice plant response rating [10]: 0 | Ducksalad plant response rating [11]: 40 | Sedge, Umbrella plant response rating [12]: 0 | Plant response rating, Galium [13, 16]: 10 | Plant response rating, Galium [13, 19]: 30 | Plant response rating, Blackgrass [14, 16]: 0 | Plant response rating, Blackgrass [14, 19]: 0

CC(=O)c1cc(-c2ccccc2Oc2ncc(Cl)cn2)on1 [Compound 218]
Plant response rating, Ragweed [1, 15]: 0 | Plant response rating, Ragweed [1, 16]: 0 | Plant response rating, Ragweed [1, 17]: 0 | Ragweed plant response rating [1, 18]: 0 | Plant response rating, Kochia [2, 15]: 0 | Plant response rating, Kochia [2, 16]: 0 | Plant response rating, Kochia [2, 17]: 0 | Kochia plant response rating [2, 18]: 0 | Plant response rating, Corn [3, 16]: 0 | Plant response rating, Corn [3, 17]: 0 | Plant response rating, Wheat [4, 16]: 0 | Plant response rating, Wheat [4, 17]: 0 | Plant response rating, Foxtail, Giant [5, 15]: 0 | Plant response rating, Foxtail, Giant [5, 16]: 0 | Plant response rating, Foxtail, Giant [5, 17]: 0 | Foxtail, Giant plant response rating [5, 18]: 60 | Plant response rating, Barnyardgrass [6, 15]: 0 | Plant response rating, Barnyardgrass [6, 16]: 0 | Plant response rating, Barnyardgrass [6, 17]: 0 | Barnyardgrass plant response rating [6, 18]: 50 | Plant response rating, Pigweed [7, 15]: 0 | Plant response rating, Pigweed [7, 16]: 40 | Plant response rating, Pigweed [7, 17]: 0 | Pigweed plant response rating [7, 18]: 90 | Plant response rating, Ryegrass, Italian [8, 15]: 0 | Plant response rating, Ryegrass, Italian [8, 16]: 0 | Plant response rating, Ryegrass, Italian [8, 17]: 0 | Ryegrass, Italian plant response rating [8, 18]: 0 | Barnyardgrass plant response rating [9]: 0 | Rice plant response rating [10]: 0 | Ducksalad plant response rating [11]: 0 | Sedge, Umbrella plant response rating [12]: 0 | Plant response rating, Galium [13, 16]: 10 | Plant response rating, Galium [13, 17]: 0 | Plant response rating, Blackgrass [14, 16]: 0 | Plant response rating, Blackgrass [14, 17]: 0

COc1ccnc(-c2ccccc2Oc2ncc(Cl)cn2)c1 [Compound 219]
Plant response rating, Ragweed [1, 15]: 0 | Plant response rating, Ragweed [1, 16]: 30 | Plant response rating, Ragweed [1, 17]: 20 | Ragweed plant response rating [1, 18]: 0 | Plant response rating, Kochia [2, 15]: 0 | Plant response rating, Kochia [2, 16]: 0 | Plant response rating, Kochia [2, 17]: 0 | Kochia plant response rating [2, 18]: 0 | Plant response rating, Corn [3, 16]: 0 | Plant response rating, Corn [3, 17]: 0 | Plant response rating, Wheat [4, 16]: 0 | Plant response rating, Wheat [4, 17]: 0 | Plant response rating, Foxtail, Giant [5, 15]: 0 | Plant response rating, Foxtail, Giant [5, 16]: 0 | Plant response rating, Foxtail, Giant [5, 17]: 0 | Foxtail, Giant plant response rating [5, 18]: 0 | Plant response rating, Barnyardgrass [6, 15]: 0 | Plant response rating, Barnyardgrass [6, 16]: 0 | Plant response rating, Barnyardgrass [6, 17]: 0 | Barnyardgrass plant response rating [6, 18]: 0 | Plant response rating, Pigweed [7, 15]: 0 | Plant response rating, Pigweed [7, 16]: 10 | Plant response rating, Pigweed [7, 17]: 10 | Pigweed plant response rating [7, 18]: 0 | Plant response rating, Ryegrass, Italian [8, 15]: 0 | Plant response rating, Ryegrass, Italian [8, 16]: 0 | Plant response rating, Ryegrass, Italian [8, 17]: 0 | Ryegrass, Italian plant response rating [8, 18]: 0 | Barnyardgrass plant response rating [9]: 0 | Rice plant response rating [10]: 0 | Ducksalad plant response rating [11]: 0 | Sedge, Umbrella plant response rating [12]: 0 | Plant response rating, Galium [13, 16]: 30 | Plant response rating, Galium [13, 17]: 20 | Plant response rating, Blackgrass [14, 16]: 0 | Plant response rating, Blackgrass [14, 17]: 0

N#Cc1cc(-c2c(F)cccc2Oc2ncc(Cl)cn2)no1 [Compound 222]
Plant response rating, Ragweed [1, 15]: 0 | Plant response rating, Ragweed [1, 16]: 20 | Plant response rating, Ragweed [1, 17]: 0 | Ragweed plant response rating [1, 18]: 0 | Plant response rating, Kochia [2, 15]: 0 | Plant response rating, Kochia [2, 16]: 30 | Plant response rating, Kochia [2, 17]: 20 | Kochia plant response rating [2, 18]: 0 | Plant response rating, Corn [3, 16]: 30 | Plant response rating, Corn [3, 17]: 0 | Plant response rating, Wheat [4, 16]: 20 | Plant response rating, Wheat [4, 17]: 0 | Plant response rating, Foxtail, Giant [5, 15]: 0 | Plant response rating, Foxtail, Giant [5, 16]: 0 | Plant response rating, Foxtail, Giant [5, 17]: 0 | Foxtail, Giant plant response rating [5, 18]: 0 | Plant response rating, Barnyardgrass [6, 15]: 0 | Plant response rating, Barnyardgrass [6, 16]: 0 | Plant response rating, Barnyardgrass [6, 17]: 0 | Barnyardgrass plant response rating [6, 18]: 0 | Plant response rating, Pigweed [7, 15]: 20 | Plant response rating, Pigweed [7, 16]: 100 | Plant response rating, Pigweed [7, 17]: 30 | Pigweed plant response rating [7, 18]: 90 | Plant response rating, Ryegrass, Italian [8, 15]: 0 | Plant response rating, Ryegrass, Italian [8, 16]: 0 | Plant response rating, Ryegrass, Italian [8, 17]: 0 | Ryegrass, Italian plant response rating [8, 18]: 0 | Barnyardgrass plant response rating [9]: 0 | Rice plant response rating [10]: 0 | Ducksalad plant response rating [11]: 30 | Sedge, Umbrella plant response rating [12]: 0 | Plant response rating, Galium [13, 16]: 90 | Plant response rating, Galium [13, 17]: 30 | Plant response rating, Blackgrass [14, 16]: 10 | Plant response rating, Blackgrass [14, 17]: 0
